Source: patent US10772840B2 (Charleston Laboratories, Inc., priority 2016, dated 2020)
Counter-ions that a name gives are not always drawn.

Experiment: Dissolution measurement by USP Apparatus 2 (Paddle Apparatus), HPLC analysis
Assay type: physicochemical
Conditions: for Dissolution, API released: 500 ml 0.1 N HCl pH 1.1, 37.0° C.; for Dissolution (% release), Max. / Dissolution (% release), Mean / Dissolution (% release), Min.: 500 ml 0.1 N HCl pH 1.1, N=6
Experimental: Dissolution studies were conducted to measure the rates of dissolution of active ingredients using a USP Apparatus 2 (Paddle Apparatus) with a dissolution fluid of 500 ml deaerated 0.1 N HCl (i.e., pH 1.1) at 37.0+/−0.5° C. Dissolution samples were analyzed by HPLC.
Dissolution medium of 0.1N HCl was prepared by mixing approximately 85 ml of concentrated (12N) Hydrochloric Acid with 10 L of water. Stock promethazine HCl standard solution was prepared by adding approximately 30 ml of dissolution medium to 25.0 mg of dried Promethazine Hydrochloride USP reference standard in a 50 ml volumetric flash, diluted to volume with dissolution media, and mixed well. […] The resulting solution is diluted to volume with dissolution medium and mixed well.
The dissolution apparatus used is USP Apparatus 2 (Paddle Apparatus) with a speed of 50 rpm at 37.0° C.±0.5° C. Dissolution medium (500 ml) was Helium sparged for at least 10 minutes. N=6 samples were tested. Sample time point of 5, 10, 15, 20, 30, 45, 60, and 90 minutes (final time point at 250 rpm). Filters: QLA 10 μm in-line full flow porous filter or equivalent; chromafil 1.0 μm on-line glass fiber membrane filter or equivalent.
The dissolution apparatus was assembled and the paddle was positioned so that the distance between its lower edge and the lower inner surface of the vessel is within 25 mm±2 mm throughout the test. This step was repeated for each of the six vessels. The speed (50 rpm) and the temperature (37.0° C.±0.5° C.) were set. 500 mL of 0.1N HCl solution were placed into each of the six vessels, previously degassed via helium purge, degassed using degasser or other suitable means. The Dissolution medium was equilibrated to set temperature and the temperature of the dissolution medium was checked with a thermometer or thermocouple before starting the dissolution. Each of the six (6) capsules were accurately weighed and the weight was recorded. The dissolution test was started. Each capsule was dropped with sinker into vessels noting the station assigned to each recorded capsule weight. The shaft was rotated at 50 rpm. Samples were withdrawn by dissolution auttosampler at 5, 10, 15, 20, 30, 45, 60, and 90 minutes into HPLC vials, or were withdraw manually. Filters (QLA 10 μm in-line full flow porous filter or equivalent; chromafil 1.0 μm on-line glass fiber membrane filter or equivalent) were utilized, discarding at least the first 5 mL of the filtrate, and clear filtrate was transfered into HPLC vials. After withdrawing samples at the 60 minute time point, the paddle rotation speed was increased to 250 rpm until the next time point of 90 minutes.
HPLC conditions: Flow rate: 1.0 ml/min; Injection Volume: 10 μL; Column Temperature: 40° C.±2° C.; Wavelengths: 240 nm; Run Time: 7 minutes; Mobile Phase A was 0.2% TFA in Water, which was prepared by mixing well 2.0 ml of trifluoroacetic acid with 1 L of water. Mobile Phase B: 0.2% TFA in Acetonitrile, which was prepared by mixing well 2.0 ml of trifluoroacetic acid to 1 L of acetonitrile; and Gradient used was as follows in Table 8.
If a Water® dissolution autosampler was utilized, then the Empower Dissolution Software was used to calculate the profile. Calculation are performed using a validated excel spreadsheet. When the sample was performed manually, the volume correction was considered for the calculation.

[1] = in a capsule, after 1 month store at 40° C., 5 min, 50 rpm
[2] = in a capsule, after 1 month store at 40° C., 10 min, 50 rpm
[3] = in a capsule, after 1 month store at 40° C., 15 min, 50 rpm
[4] = in a capsule, after 1 month store at 40° C., 20 min, 50 rpm
[5] = in a capsule, after 1 month store at 40° C., 30 min, 50 rpm
[6] = in a capsule, after 1 month store at 40° C., 45 min, 50 rpm
[7] = in a capsule, after 1 month store at 40° C., 60 min, 50 rpm
[8] = in a capsule, after 1 month store at 40° C., 90 min (250 rpm after 60 min)
[9] = in a capsule, large batch, 5 min, 50 rpm
[10] = in a capsule, large batch, 10 min, 50 rpm
[11] = in a capsule, large batch, 15 min, 50 rpm
[12] = in a capsule, large batch, 20 min, 50 rpm
[13] = in a capsule, large batch, 30 min, 50 rpm
[14] = in a capsule, large batch, 45 min, 50 rpm
[15] = in a capsule, large batch, 60 min, 50 rpm
[16] = in a capsule, large batch, 90 min (250 rpm after 60 min)

Structure (SMILES): CC(CN1c2ccccc2Sc2ccccc21)N(C)C (centres unmarked) [Promethazine, Promethazine Hydrochloride]
- Dissolution, API released (content of capsule without shells, 5 min, 50 rpm): 85%
- Dissolution, API released (content of capsule without shells, 10 min, 50 rpm): 90%
- Dissolution, API released (content of capsule without shells, 15 min, 50 rpm): 92%
- Dissolution, API released (content of capsule without shells, 20 min, 50 rpm): 94%
- Dissolution, API released (content of capsule without shells, 30 min, 50 rpm): 94%
- Dissolution, API released (content of capsule without shells, 45 min, 50 rpm): 95%
- Dissolution, API released (content of capsule without shells, 60 min, 50 rpm): 96%
- Dissolution, API released (content of capsule without shells, 90 min (250 rpm after 60 min)): 100%
- Dissolution (% release), Max. [1]: 56
- Dissolution (% release), Mean [1]: 43
- Dissolution (% release), Min. [1]: 35
- Dissolution (% release), Max. [2]: 77
- Dissolution (% release), Mean [2]: 64
- Dissolution (% release), Min. [2]: 54
- Dissolution (% release), Max. [3]: 83
- Dissolution (% release), Mean [3]: 73
- Dissolution (% release), Min. [3]: 63
- Dissolution (% release), Max. [4]: 88
- Dissolution (% release), Mean [4]: 79
- Dissolution (% release), Min. [4]: 68
- Dissolution (% release), Max. [5]: 92
- Dissolution (% release), Mean [5]: 84
- Dissolution (% release), Min. [5]: 74
- Dissolution (% release), Max. [6]: 96
- Dissolution (% release), Mean [6]: 89
- Dissolution (% release), Min. [6]: 80
- Dissolution (% release), Max. [7]: 98
- Dissolution (% release), Mean [7]: 92
- Dissolution (% release), Min. [7]: 84
- Dissolution (% release), Max. [8]: 103
- Dissolution (% release), Mean [8]: 102
- Dissolution (% release), Min. [8]: 99
- Dissolution (% release), Max. [9]: 63
- Dissolution (% release), Mean [9]: 47
- Dissolution (% release), Min. [9]: 32
- Dissolution (% release), Max. [10]: 87
- Dissolution (% release), Mean [10]: 69
- Dissolution (% release), Min. [10]: 53
- Dissolution (% release), Max. [11]: 92
- Dissolution (% release), Mean [11]: 78
- Dissolution (% release), Min. [11]: 63
- Dissolution (% release), Max. [12]: 95
- Dissolution (% release), Mean [12]: 82
- Dissolution (% release), Min. [12]: 71
- Dissolution (% release), Max. [13]: 97
- Dissolution (% release), Mean [13]: 87
- Dissolution (% release), Min. [13]: 79
- Dissolution (% release), Max. [14]: 99
- Dissolution (% release), Mean [14]: 92
- Dissolution (% release), Min. [14]: 85
- Dissolution (% release), Max. [15]: 101
- Dissolution (% release), Mean [15]: 94
- Dissolution (% release), Min. [15]: 88
- Dissolution (% release), Max. [16]: 105
- Dissolution (% release), Mean [16]: 102
- Dissolution (% release), Min. [16]: 101
- Dissolution, API released (in a capsule, small batch, 5 min, 50 rpm): 55%
- Dissolution, API released (in a capsule, small batch, 10 min, 50 rpm): 78%
- Dissolution, API released (in a capsule, small batch, 15 min, 50 rpm): 85%
- Dissolution, API released (in a capsule, small batch, 20 min, 50 rpm): 88%
- Dissolution, API released (in a capsule, small batch, 30 min, 50 rpm): 92%
- Dissolution, API released (in a capsule, small batch, 45 min, 50 rpm): 95%
- Dissolution, API released (in a capsule, small batch, 60 min, 50 rpm): 97%
- Dissolution, API released (in a capsule, small batch, 90 min (250 rpm after 60 min)): 102%
- Dissolution, API released (promethazine and sumatriptan pellets, 5 min, 50 rpm): 95%
- Dissolution, API released (promethazine and sumatriptan pellets, 15 min, 50 rpm): 102%
- Dissolution, API released (promethazine and sumatriptan pellets, 20 min, 50 rpm): 102%
- Dissolution, API released (promethazine and sumatriptan pellets, 30 min, 50 rpm): 102%
- Dissolution, API released (promethazine and sumatriptan pellets, 45 min, 50 rpm): 102%
- Dissolution, API released (promethazine and sumatriptan pellets, 60 min, 50 rpm): 102%
- Dissolution, API released (promethazine and sumatriptan pellets, 90 min (250 rpm after 60 min)): 102%
